Measured values published in publication PMC4948780, “PARP Inhibitors in Clinical Use Induce Genomic Instability in Normal Human Cells” (PLoS ONE, 2016).

Legend:
Assay type in all cases: cell-based, human
[1] = test system: MCF-7; assay: Chromosomal aberrations on metaphase spreads (Giemsa); settings: 1 μM, 24 hrs
Description: (§1) To prepare metaphase spreads, exponentially growing cells were treated with 0.1–0.3 μg/ml of colcemid for 1–6 hr. Cells were collected and incubated in hypotonic solution (0.56% KCl), fixed in methanol: acetic acid (3:1), spotted to slides and air-dried. To measure chromosomal aberrations, the slides were stained with 2% Giemsa/Sorensen’s buffer. To visualize SCEs, the doubling time for each cell type was determined. Cells were incubated with 10 μM BrdU for two cell cycles. After metaphase spreads were prepared, the slides were treated with 0.5 μg/ml Hoechst 33258. The slides were exposed to black light for 20–60 min, incubated at 60°C for 2 hr, and stained in 4–10% Giemsa/Sorensen’s buffer.

[2] = test system: HMEC-hTERT; assay: as above; settings: 1 μM, 24 hrs
Description: as §1

[3] = test system: MDA-MB-468; assay: as above; settings: 1 μM, 24 hrs
Description: as §1

[4] = test system: primary T cell 1; assay: as above; settings: 1 μM, 24 hrs
Description: as §1

[5] = test system: EBV-BL; assay: as above; settings: 1 μM, 24 hrs, 100 metaphases
Description: as §1

[6] = test system: MCF-10A; assay: as above; settings: 1 μM, 24 hrs
Description: as §1

[7] = test system: primary T cell 2; assay: Sister chromatid exchange (SCE) assay, BrdU differential staining; settings: 1 μM, 70 hr
From the text: (§2) Human mammary epithelial cell lines used included non-tumorigenic diploid MCF-10A, HMEC-hTERT and tumorigenic MDA-MB-468 (basal) and MCF-7 (luminal). […] Blood samples were obtained from normal donor participants. The participants provided written informed consent to IRB protocol #95–054 approved by the Institutional Review Board at MSKCC. The original signed consent is then sent to the research participant’s medical record and a copy of the consent is given to the participant. The EBV-transformed B-lymphocyte cell line (EBV-BL) was generated by transformation of peripheral blood mononuclear cells (PBMC) with the B95.8 strain of EBV, as previously described. Primary T cells were generated from PBMC from two normal donors by non-specific activation with phytohemagglutinin and cultured in RPMI1640 and human serum AB for 4–14 days before use. E14 mES cell line was provided by M. Hooper, Brca1^-/- 236.44 mES cell line was provided by B. H. Koller, Brca2^lex1/lex2 mES cell line was provided by P. Hasty and Lexicon Genetics. E14 wild-type, Brca1^-/- 236.44, and Brca2^lex1/lex2 mES cell lines were cultured in standard ES media. Brca1^-/- 236.44 cells express a BRCA1 peptide deleted for sequences encoded by exon 11 [52], while Brca2^lex1/lex2 cells express a BRCA2 peptide deleted for the terminal exon 27 [53]. Olaparib was synthesized in the MSKCC Organic chemistry core facility. Veliparib and BSI-201 were purchased from Chemie Tek. The compounds were dissolved in DMSO and PBS. For clonogenic survival assays, MCF-10A (1000 cells), HMEC-hTERT (1000 cells), MDA-MB-468 (1500 cells) and mouse ES cell (2000 cells) were seeded, vehicle control or inhibitors were added at the indicated concentration 24 hours after seeding and changed every three days for continuous treatment. At 7–14 days, colonies were fixed with methanol and stained with Giemsa. For EBV-BL (6 × 10^6) and primary T cells (3.6 × 10^6) were continuously exposed to the indicated concentration of drug for 10 days at 0.6 × 10^6 cells/ml. Viable cells were scored by trypan blue exclusion.
as §1

[8] = test system: MCF-7; assay: as above; settings: 1 μM, 66.5 hr
From the text: as §2, §1

[9] = test system: HMEC-hTERT; assay: as above; settings: 1 μM, 30.5 hr
From the text: as §2, §1

[10] = test system: MDA-MB-468; assay: as above; settings: 1 μM, 40 hr
From the text: as §2, §1

[11] = test system: primary T cell 1; assay: as above; settings: 1 μM, 99 hr
From the text: as §2, §1

[12] = test system: EBV-BL; assay: as above
From the text: as §2, §1

[13] = test system: MCF-10A; assay: as above
From the text: as §2, §1

[14] = 100 metaphases, radial and telomere association counted as two

## O=C(c1cc(Cc2n[nH]c(=O)c3ccccc23)ccc1F)N1CCN(C(=O)C2CC2)CC1 [olaparib]
[1]
  total chromatid-type aberrations / metaphase (mean ± SEM): 1.39 ± 0.14
[1]; 100 metaphases
  chromatid-type radial chromosome: 4
  chromatid-type telomere association: 1
  chromosome-type dicentric: 4
  chromosome-type gap/break: 8
[2]
  total chromatid-type aberrations / metaphase (mean ± SEM): 0.30 ± 0.07
[2]; 100 metaphases
  chromatid-type radial chromosome: 0
  chromatid-type telomere association: 0
  chromosome-type dicentric: 0
  chromosome-type gap/break: 4
[2]; [14]
  total chromatid-type aberrations: 30
[3]
  total chromatid-type aberrations / metaphase (mean ± SEM): 0.67 ± 0.13
[3]; 100 metaphases
  chromatid-type radial chromosome: 5
  chromatid-type telomere association: 3
  chromosome-type dicentric: 4
  chromosome-type gap/break: 5
[3]; [14]
  total chromatid-type aberrations: 67
[4]
  total chromatid-type aberrations / metaphase (mean ± SEM): 0.44 ± 0.07
[4]; 100 metaphases
  chromatid-type radial chromosome: 2
  chromatid-type telomere association: 0
  chromosome-type dicentric: 3
  chromosome-type gap/break: 0
[4]; [14]
  total chromatid-type aberrations: 44
[5]
  chromatid-type radial chromosome: 1
  chromatid-type telomere association: 0
  chromosome-type dicentric: 0
  chromosome-type gap/break: 1
[5]; radial and telomere association counted as two
  total chromatid-type aberrations: 44
[6]
  total chromatid-type aberrations / metaphase (mean ± SEM): 0.22 ± 0.05
[6]; 100 metaphases
  chromatid-type radial chromosome: 0
  chromatid-type telomere association: 1
  chromosome-type dicentric: 0
  chromosome-type gap/break: 3
[6]; [14]
  total chromatid-type aberrations: 22
[7]
  Mean no. SCE / chromosome ± SD: 0.94 ± 0.21
  Mean no. SCE / metaphase ± SD: 43.0 ± 9.7
[8]
  Mean no. SCE / metaphase ± SD: 152.4 ± 21.9
[9]
  Mean no. SCE / chromosome ± SD: 1.30 ± 0.22
  Mean no. SCE / metaphase ± SD: 59.7 ± 10.0
[10]
  Mean no. SCE / chromosome ± SD: 1.97 ± 0.38
  Mean no. SCE / metaphase ± SD: 107.9 ± 21.0
[11]
  Mean no. SCE / chromosome ± SD: 0.90 ± 0.20
  Mean no. SCE / metaphase ± SD: 41.3 ± 9.3
[12]; 0.1 μM
  Mean no. SCE / metaphase ± SD: 26.0 ± 6.4
[12]; 0.5 μM
  Mean no. SCE / metaphase ± SD: 36.2 ± 7.4
[12]; 1 μM, 87 hr
  Mean no. SCE / chromosome ± SD: 1.13 ± 0.23
  Mean no. SCE / metaphase ± SD: 51.6 ± 10.6
[13]; 0.1 μM
  Mean no. SCE / metaphase ± SD: 33.0 ± 4.9
[13]; 0.5 μM
  Mean no. SCE / metaphase ± SD: 52.2 ± 9.8
[13]; 1 μM, 30 hr
  Mean no. SCE / chromosome ± SD: 1.57 ± 0.24
  Mean no. SCE / metaphase ± SD: 73.5 ± 10.9
